As usually defined, the IC50 is the midpoint of a concentration-inhibition curve. Low values mean greater potency in that assay, high ones weaker potency in that assay. Broadly, the Ki is the dissociation constant of the complex between target and ligand, obtained from inhibition or displacement.

Results on 17 molecules are retold here after BindingDB's records for doi:10.1016/S1074-5521(02)00184-9 (The Scripps Research Institute, 2002).

Chain of HIV-1 protease (O90785 whole entry): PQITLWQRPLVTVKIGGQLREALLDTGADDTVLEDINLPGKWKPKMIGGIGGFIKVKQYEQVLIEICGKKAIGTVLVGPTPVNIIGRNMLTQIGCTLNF

The assay concerns the target HIV-1 protease (Human immunodeficiency virus, UniProt O90785). The experiment in a line: Inhibition Assay. The settings on record: pH 5.6; 37 °C. The source says:
Inhibition of HIV-protease activity for selected acids at P3-P3' positions.
`CC(C)[C@H](NC(=O)c1ccc(C(=O)c2ccccc2)o1)C(=O)N[C@@H](Cc1ccccc1)[C@@H](O)[C@H](O)[C@H](Cc1ccccc1)NC(=O)[C@@H](NC(=O)c1ccc(C(=O)c2ccccc2)o1)C(C)C` [P3-P3' Entry 13] came in with an IC50 of 10 nM.
The same measure, in the same setting: the same measure for `CCC(C)[C@H](NC(=O)c1ccc2cccc(O)c2n1)C(=O)N[C@@H](Cc1ccccc1)[C@@H](O)[C@H](O)[C@H](Cc1ccccc1)NC(=O)[C@@H](NC(=O)c1ccc2cccc(O)c2n1)C(C)C` (stereo partly drawn) [P3-P3' Entry 5]: above 50 nM; for `CC(C)[C@H](NC(=O)CCc1c[nH]c2ccccc12)C(=O)N[C@@H](Cc1ccccc1)[C@@H](O)[C@H](O)[C@H](Cc1ccccc1)NC(=O)[C@@H](NC(=O)CCc1c[nH]c2ccccc12)C(C)C` [P3-P3' Entry 2]: 10 nM; for `CC(C)[C@H](NC(=O)c1ccc([N+](=O)[O-])o1)C(=O)N[C@@H](Cc1ccccc1)[C@@H](O)[C@H](O)[C@H](Cc1ccccc1)NC(=O)[C@@H](NC(=O)c1ccc([N+](=O)[O-])o1)C(C)C` [P3-P3' Entry 9]: 20 nM.
Consider `CC(C)[C@H](NC(=O)c1ccc2ccccc2n1)C(=O)N[C@@H](Cc1ccccc1)[C@@H](O)[C@H](O)[C@H](Cc1ccccc1)NC(=O)[C@@H](NC(=O)c1ccc2ccccc2n1)C(C)C` [P3-P3' Entry 6], for which the IC50 turned out to be 10 nM.
For the molecule `CC(C)[C@H](NC(=O)c1ccc(CN2CCCCC2)o1)C(=O)N[C@@H](Cc1ccccc1)[C@@H](O)[C@H](O)[C@H](Cc1ccccc1)NC(=O)[C@@H](NC(=O)c1ccc(CN2CCCCC2)o1)C(C)C` [P3-P3' Entry 14], the IC50 is above 50 nM.
Molecule `CC(C)[C@H](NC(=O)c1ccc(-c2c(Cl)cc([N+](=O)[O-])cc2Cl)o1)C(=O)N[C@@H](Cc1ccccc1)[C@@H](O)[C@H](O)[C@H](Cc1ccccc1)NC(=O)[C@@H](NC(=O)c1ccc(-c2c(Cl)cc([N+](=O)[O-])cc2Cl)o1)C(C)C` [P3-P3' Entry 10] came in with an IC50 above 50 nM.
`CC(C)[C@H](NC(=O)c1cc(O)c2ccccc2n1)C(=O)N[C@@H](Cc1ccccc1)[C@@H](O)[C@H](O)[C@H](Cc1ccccc1)NC(=O)[C@@H](NC(=O)c1cc(O)c2ccccc2n1)C(C)C` [P3-P3' Entry 4] returned an IC50 of 19 nM.
Consider `CC(C)[C@H](NC(=O)Cc1c[nH]c2ccccc12)C(=O)N[C@@H](Cc1ccccc1)[C@@H](O)[C@H](O)[C@H](Cc1ccccc1)NC(=O)[C@@H](NC(=O)Cc1c[nH]c2ccccc12)C(C)C` [P3-P3' Entry 1], for which 17 nM corresponded to half-maximal inhibition (IC50).
Molecule `CC(C)[C@H](NC(=O)c1ccc(-c2ccc([N+](=O)[O-])cc2[N+](=O)[O-])o1)C(=O)N[C@@H](Cc1ccccc1)[C@@H](O)[C@H](O)[C@H](Cc1ccccc1)NC(=O)[C@@H](NC(=O)c1ccc(-c2ccc([N+](=O)[O-])cc2[N+](=O)[O-])o1)C(C)C` [P3-P3' Entry 12] came in with an IC50 of 10 nM.
As to `CC(C)[C@H](NC(=O)c1ccc(-c2cc(C(F)(F)F)ccc2Cl)o1)C(=O)N[C@@H](Cc1ccccc1)[C@@H](O)[C@H](O)[C@H](Cc1ccccc1)NC(=O)[C@@H](NC(=O)c1ccc(-c2cc(C(F)(F)F)ccc2Cl)o1)C(C)C` [P3-P3' Entry 11], the IC50 was above 50 nM.
`CC(C)[C@H](NC(=O)c1ccc(CN2CCOCC2)o1)C(=O)N[C@@H](Cc1ccccc1)[C@@H](O)[C@H](O)[C@H](Cc1ccccc1)NC(=O)[C@@H](NC(=O)c1ccc(CN2CCOCC2)o1)C(C)C` [P3-P3' Entry 15] registered a half-maximal inhibitory concentration (IC50) above 50 nM.
For the molecule `CC(C)[C@H](NC(=O)CCCc1c[nH]c2ccccc12)C(=O)N[C@@H](Cc1ccccc1)[C@@H](O)[C@H](O)[C@H](Cc1ccccc1)NC(=O)[C@@H](NC(=O)CCCc1c[nH]c2ccccc12)C(C)C` [P3-P3' Entry 3], the IC50 worked out at 14 nM.
Turning to `CC(C)[C@H](NC(=O)c1ccc(-c2ccc([N+](=O)[O-])cc2)o1)C(=O)N[C@@H](Cc1ccccc1)[C@@H](O)[C@H](O)[C@H](Cc1ccccc1)NC(=O)[C@@H](NC(=O)c1ccc(-c2ccc([N+](=O)[O-])cc2)o1)C(C)C` [P3-P3' Entry 8], inhibition was half-maximal at 6 nM (IC50) and the Ki is 2 nM.
The molecule `CC(C)[C@H](NC(=O)OCc1ccccc1)C(=O)N[C@@H](Cc1ccccc1)[C@@H](O)[C@H](O)[C@H](Cc1ccccc1)NC(=O)[C@@H](NC(=O)OCc1ccccc1)C(C)C` gave a Ki of 1.5 nM.
On to `CC(C)[C@H](NC(=O)COc1ccc2ccccc2c1)C(=O)N[C@@H](Cc1ccccc1)[C@@H](O)[C@H](O)[C@H](Cc1ccccc1)NC(=O)[C@@H](NC(=O)COc1ccc2ccccc2c1)C(C)C` [P3-P3' Entry 7], for which half-maximal inhibition (IC50) was put at 10 nM.
For `CC(C)[C@H](NC(=O)c1ccc(-c2ccc(Cl)cc2)o1)C(=O)N[C@@H](Cc1ccccc1)[C@@H](O)[C@H](O)[C@H](Cc1ccccc1)NC(=O)[C@@H](NC(=O)c1ccc(-c2ccc(Cl)cc2)o1)C(C)C` [P3-P3' Entry 16], the IC50 turned out to be 10 nM.
